# Measurements: US11254663B2 (BRISTOL-MYERS SQUIBB COMPANY, priority 2019, dated 2022)
# pEC50: −log10 of the molar value.
# Molecular target: FXR (Homo sapiens (Human), UniProt Q96RI1)
# Experiment: transient human FXR/Gal4-luciferase reporter assay
# Format: cell-based
# Settings: Gal4-hFXR fusion construct, HEK293 reporter cells; response relative to 8 μM GW-4064
# Summary of the method: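 Compound exposure ran overnight at 37 °C and activity was measured as luminescence with Steady-Glo reagent. The cells were a HEK293 line stably expressing firefly luciferase under five Gal4 response elements. They were transiently transfected, one night beforehand, with a plasmid encoding Gal4 DNA-binding domain fused to the human FXR ligand-binding domain.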
# Chain of FXR (Q96RI1 262-486): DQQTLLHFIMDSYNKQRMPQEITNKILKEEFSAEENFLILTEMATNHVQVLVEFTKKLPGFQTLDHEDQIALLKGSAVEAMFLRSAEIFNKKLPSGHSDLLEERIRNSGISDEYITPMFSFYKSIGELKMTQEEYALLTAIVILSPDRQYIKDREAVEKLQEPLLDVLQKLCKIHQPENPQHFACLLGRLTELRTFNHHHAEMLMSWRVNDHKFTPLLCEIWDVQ
row,Compound,pEC50
1,"CC(C)c1nc(C23CCC(CN(C(=O)C45CC(F)(C4)C5)c4cccc(-c5cnc(C6CC6)nc5)c4)(CC2)CC3)no1 [Example 434, N-(3-(2-cyclopropylpyrimidin-5-yl)phenyl)-3-fluoro-N-((4-(5-isopropyl-1,2,4-oxadiazol-3-yl)bicyclo[2.2.2]octan-1-yl)methyl)bicyclo[1.1.1]pentane-1-carboxamide]",7.24
2,"CC(C)c1nc(C23CCC(CN(C(=O)C45CC(F)(C4)C5)c4cccc(-c5cnc(C(F)(F)F)nc5)c4)(CC2)CC3)no1 [Example 435, 3-fluoro-N-((4-(5-isopropyl-1,2,4-oxadiazol-3-yl)bicyclo[2.2.2]octan-1-yl)methyl)-N-(3-(2-(trifluoromethyl)pyrimidin-5-yl)phenyl)bicyclo[1.1.1]pentane-1-carboxamide]",6.62
3,"CC(C)c1nc(C23CCC(CN(C(=O)C45CC(F)(C4)C5)c4cccc(-c5ccc(OC(F)F)cc5)c4)(CC2)CC3)no1 [Example 436, N-(4′-(difluoromethoxy)-[1,1′-biphenyl]-3-yl)-3-fluoro-N-((4-(5-isopropyl-1,2,4-oxadiazol-3-yl)bicyclo[2.2.2]octan-1-yl)methyl)bicyclo[1.1.1]pentane-1-carboxamide]",7.34
4,"CCOc1ncc(-c2cccc(N(CC34CCC(c5noc(C(C)(C)C)n5)(CC3)CC4)C(=O)C34CC(F)(C3)C4)c2)cn1 [Example 437, N-((4-(5-(tert-butyl)-1,2,4-oxadiazol-3-yl)bicyclo[2.2.2]octan-1-yl)methyl)-N-(3-(2-ethoxypyrimidin-5-yl)phenyl)-3-fluorobicyclo[1.1.1]pentane-1-carboxamide]",7.41
5,"CC(C)(C)c1nc(C23CCC(CN(C(=O)C45CC(F)(C4)C5)c4cccc(-c5ccc(NS(C)(=O)=O)cc5)c4)(CC2)CC3)no1 [Example 438, N-((4-(5-(tert-butyl)-1,2,4-oxadiazol-3-yl)bicyclo[2.2.2]octan-1-yl)methyl)-3-fluoro-N-(4′-(methylsulfonamido)-[1,1′-biphenyl]-3-yl)bicyclo[1.1.1]pentane-1-carboxamide]",7.34
6,"CCOc1ccc(-c2cccc(N(CC34CCC(c5noc(C(C)(C)C)n5)(CC3)CC4)C(=O)C34CC(F)(C3)C4)c2)cc1 [Example 439, N-((4-(5-(tert-butyl)-1,2,4-oxadiazol-3-yl)bicyclo[2.2.2]octan-1-yl)methyl)-N-(4′-ethoxy-[1,1′-biphenyl]-3-yl)-3-fluorobicyclo[1.1.1]pentane-1-carboxamide]",7.15
7,"Cc1nc2ccc(-c3cccc(N(CC45CCC(c6noc(C(C)(C)C)n6)(CC4)CC5)C(=O)C45CC(F)(C4)C5)c3)cc2s1 [Example 441, N-((4-(5-(tert-butyl)-1,2,4-oxadiazol-3-yl)bicyclo[2.2.2]octan-1-yl)methyl)-3-fluoro-N-(3-(2-methylbenzo[d]thiazol-6-yl)phenyl)bicyclo[1.1.1]pentane-1-carboxamide]",7.17
8,"CC(C)(C)c1nc(C23CCC(CN(C(=O)C45CC(F)(C4)C5)c4cccc(-c5cnc(C6CC6)nc5)c4)(CC2)CC3)no1 [Example 442, N-((4-(5-(tert-butyl)-1,2,4-oxadiazol-3-yl)bicyclo[2.2.2]octan-1-yl)methyl)-N-(3-(2-cyclopropylpyrimidin-5-yl)phenyl)-3-fluorobicyclo[1.1.1]pentane-1-carboxamide]",7.15
9,"CC(C)(C)c1nc(C23CCC(CN(C(=O)C45CC(F)(C4)C5)c4cccc(-c5cnc(C(F)(F)F)nc5)c4)(CC2)CC3)no1 [Example 443, N-((4-(5-(tert-butyl)-1,2,4-oxadiazol-3-yl)bicyclo[2.2.2]octan-1-yl)methyl)-3-fluoro-N-(3-(2-(trifluoromethyl)pyrimidin-5-yl)phenyl)bicyclo[1.1.1]pentane-1-carboxamide]",6.45
10,"CC(C)(C)c1nc(C23CCC(CN(C(=O)C45CC(F)(C4)C5)c4cccc(-c5ccc(OC(F)F)cc5)c4)(CC2)CC3)no1 [Example 444, N-((4-(5-(tert-butyl)-1,2,4-oxadiazol-3-yl)bicyclo[2.2.2]octan-1-yl)methyl)-N-(4′-(difluoromethoxy)-[1,1′-biphenyl]-3-yl)-3-fluorobicyclo[1.1.1]pentane-1-carboxamide]",7.21
11,"CC(C)(C)c1nc(C23CCC(CN(C(=O)C45CC(F)(C4)C5)c4cccc(-c5ccc(C(F)(F)F)cc5)c4)(CC2)CC3)no1 [Example 445, N-((4-(5-(tert-butyl)-1,2,4-oxadiazol-3-yl)bicyclo[2.2.2]octan-1-yl)methyl)-3-fluoro-N-(4′-(trifluoromethyl)-[1,1′-biphenyl]-3-yl)bicyclo[1.1.1]pentane-1-carboxamide]",6.14
12,"CC(C)(C)c1nc(C23CCC(CN(C(=O)C45CC(F)(C4)C5)c4cccc(-c5ccc(NS(=O)(=O)C(F)(F)F)cc5)c4)(CC2)CC3)no1 [Example 446, N-((4-(5-(tert-butyl)-1,2,4-oxadiazol-3-yl)bicyclo[2.2.2]octan-1-yl)methyl)-3-fluoro-N-(4′-((trifluoromethyl)sulfonamido)-[1,1′-biphenyl]-3-yl)bicyclo[1.1.1]pentane-1-carboxamide]",6.65
13,"CC(C)(C)c1nc(C23CCC(CN(C(=O)C45CC(F)(C4)C5)c4cccc(-c5ccc6[nH]c(=O)oc6c5)c4)(CC2)CC3)no1 [Example 447, N-((4-(5-(tert-butyl)-1,2,4-oxadiazol-3-yl)bicyclo[2.2.2]octan-1-yl)methyl)-3-fluoro-N-(3-(2-oxo-2,3-dihydrobenzo[d]oxazol-6-yl)phenyl)bicyclo[1.1.1]pentane-1-carboxamide]",7.06
14,"CC(C)S(=O)(=O)Nc1ccc(-c2cccc(N(CC34CCC(c5noc(C(C)(C)C)n5)(CC3)CC4)C(=O)C34CC(F)(C3)C4)c2)cc1 [Example 448, N-((4-(5-(tert-butyl)-1,2,4-oxadiazol-3-yl)bicyclo[2.2.2]octan-1-yl)methyl)-3-fluoro-N-(4′-((1-methylethyl)sulfonamido)-[1,1′-biphenyl]-3-yl)bicyclo[1.1.1]pentane-1-carboxamide]",6.56
15,"Cc1nc2ncc(-c3cccc(N(CC45CCC(c6noc(C(C)(C)C)n6)(CC4)CC5)C(=O)C45CC(F)(C4)C5)c3)cc2s1 [Example 449, N-((4-(5-(tert-butyl)-1,2,4-oxadiazol-3-yl)bicyclo[2.2.2]octan-1-yl)methyl)-3-fluoro-N-(3-(2-methylthiazolo[4,5-b]pyridin-6-yl)phenyl)bicyclo[1.1.1]pentane-1-carboxamide]",7.01
16,"COc1cnc(-c2cccc(N(CC34CCC(c5noc(C(C)(C)C)n5)(CC3)CC4)C(=O)C34CC(F)(C3)C4)c2)nc1 [Example 450, N-((4-(5-(tert-butyl)-1,2,4-oxadiazol-3-yl)bicyclo[2.2.2]octan-1-yl)methyl)-3-fluoro-N-(3-(5-methoxypyrimidin-2-yl)phenyl)bicyclo[1.1.1]pentane-1-carboxamide]",7.17
17,"CCOc1cnc(-c2cccc(N(CC34CCC(c5noc(C(C)(C)C)n5)(CC3)CC4)C(=O)C34CC(F)(C3)C4)c2)nc1 [Example 451, N-((4-(5-(tert-butyl)-1,2,4-oxadiazol-3-yl)bicyclo[2.2.2]octan-1-yl)methyl)-N-(3-(5-ethoxypyrimidin-2-yl)phenyl)-3-fluorobicyclo[1.1.1]pentane-1-carboxamide]",7.33
18,"CC(C)(C)c1nc(C23CCC(CN(C(=O)C45CC(F)(C4)C5)c4cccc(-c5ncc(OC(F)F)cn5)c4)(CC2)CC3)no1 [Example 452, N-((4-(5-(tert-butyl)-1,2,4-oxadiazol-3-yl)bicyclo[2.2.2]octan-1-yl)methyl)-N-(3-(5-(difluoromethoxy)pyrimidin-2-yl)phenyl)-3-fluorobicyclo[1.1.1]pentane-1-carboxamide]",7.77
19,"CCc1cnc(-c2cccc(N(CC34CCC(c5noc(C(C)(C)C)n5)(CC3)CC4)C(=O)C34CC(F)(C3)C4)c2)nc1 [Example 453, N-((4-(5-(tert-butyl)-1,2,4-oxadiazol-3-yl)bicyclo[2.2.2]octan-1-yl)methyl)-N-(3-(5-ethylpyrimidin-2-yl)phenyl)-3-fluorobicyclo[1.1.1]pentane-1-carboxamide]",7.47
20,"Cc1cnc(-c2cccc(N(CC34CCC(c5noc(C(C)(C)C)n5)(CC3)CC4)C(=O)C34CC(F)(C3)C4)c2)nc1 [Example 454, N-((4-(5-(tert-butyl)-1,2,4-oxadiazol-3-yl)bicyclo[2.2.2]octan-1-yl)methyl)-3-fluoro-N-(3-(5-methylpyrimidin-2-yl)phenyl)bicyclo[1.1.1]pentane-1-carboxamide]",7.51
21,"CC(C)(C)c1nc(C23CCC(CN(C(=O)C45CC(F)(C4)C5)c4cccc(-c5ccc(OC(F)F)cn5)c4)(CC2)CC3)no1 [Example 455, N-((4-(5-(tert-butyl)-1,2,4-oxadiazol-3-yl)bicyclo[2.2.2]octan-1-yl)methyl)-N-(3-(5-(difluoromethoxy)pyridin-2-yl)phenyl)-3-fluorobicyclo[1.1.1]pentane-1-carboxamide]",7.77
22,"CCc1ccc(-c2cccc(N(CC34CCC(c5noc(C(C)(C)C)n5)(CC3)CC4)C(=O)C34CC(F)(C3)C4)c2)cc1 [Example 456, N-((4-(5-(tert-butyl)-1,2,4-oxadiazol-3-yl)bicyclo[2.2.2]octan-1-yl)methyl)-N-(4′-ethyl-[1,1′-biphenyl]-3-yl)-3-fluorobicyclo[1.1.1]pentane-1-carboxamide]",6.97
23,"CC(C)(C)c1nc(C23CCC(CN(C(=O)C45CC(F)(C4)C5)c4cccc(-c5ccc6c(c5)OC(F)(F)O6)c4)(CC2)CC3)no1 [Example 457, N-((4-(5-(tert-butyl)-1,2,4-oxadiazol-3-yl)bicyclo[2.2.2]octan-1-yl)methyl)-N-(3-(2,2-difluorobenzo[d][1,3]dioxol-5-yl)phenyl)-3-fluorobicyclo[1.1.1]pentane-1-carboxamide]",6.84
